Data from ChEMBL document CHEMBL3045234, “Synthesis of new pyridazinone derivatives as platelet aggregation inhibitors” (2010).

Experiments:
Assay type in all cases: functional
[1] = Antiplatelet activity in Mus musculus Laca (mouse) platelet assessed as bleeding time at 30 mg/kg, po after 1 hr by tail transaction bleeding test (reference value: 3.2 +/- 0.218 min)
[2] = Antiplatelet activity in Mus musculus Laca (mouse) platelet assessed as bleeding time at 60 mg/kg, po after 1 hr by tail transaction bleeding test (reference value: 3.2 +/- 0.218 min)
[3] = Antiplatelet activity in Mus musculus Laca (mouse) platelet assessed as bleeding time at 7.5 mg/kg, po after 1 hr by tail transaction bleeding test (reference value: 3.2 +/- 0.218 min)
[4] = Antiplatelet activity in Mus musculus Laca (mouse) platelet assessed as bleeding time at 15 mg/kg, po after 1 hr by tail transaction bleeding test (reference value: 3.2 +/- 0.218 min)
[5] = Antiplatelet activity in Mus musculus Laca (mouse) platelet assessed as bleeding time at 15 mg/kg, po after 1 hr by tail transaction bleeding test relative to aspirin

SMILES	Time [1]	Time [2]	Time [3]	Time [4]	fold change (FC) [5]
COc1ccc(CNc2ccc(C3=NNC(=O)CC3)cc2)cc1OC	6.5 min	7.1 min	4.2 min	5.6 min	
COc1cc(CNc2ccc(C3=NNC(=O)CC3)cc2)cc(OC)c1OC	6.1 min	6.5 min	4.4 min	5.2 min	
O=C1CCC(c2ccc(NCc3ccccc3O)cc2)=NN1	8.5 min	9.2 min	4.4 min	7.4 min	
COc1cc(CNc2ccc(C3=NNC(=O)CC3)cc2)ccc1O	6.1 min	7.3 min	4.1 min	5.2 min	
O=C1CCC(c2ccc(NCc3ccc(F)cc3)cc2)=NN1	6.2 min	7 min	3.8 min	4.9 min	
O=C1CCC(c2ccc(NCc3c[nH]c4ccccc34)cc2)=NN1	9.2 min	9.7 min	5.5 min	8.3 min	>2
O=C1CCC(c2ccc(NCc3ccncc3)cc2)=NN1	6.2 min	7 min	4.3 min	5.3 min	
O=C1CCC(c2ccc(NCc3cccnc3)cc2)=NN1	6.2 min	6.6 min	4.1 min	5.5 min	
CC(=O)Oc1ccccc1C(=O)O [ASPIRIN]	6.1 min	6.6 min	4.2 min	5.3 min	
